Source: US8309530B2, “Compositions and methods for modulating ghrelin-mediated conditions” (Washington State University, priority 2009, dated 2012)
Entries after “also recorded” stand apart in the source; their conditions may differ.

What was measured:
ghrelin mRNA = assay: initial screening of ghrelin siRNAs using cultured cells: suppression of ghrelin mRNA in vitro; format: cell-based, mouse
Procedure: In certain preferred embodiments, baseline food intake for the 12-h light and dark period is measured over a 48-h time period in rats (n=16) that receive no treatment. On the third day, rats are separated randomly into two groups. One group of rats (n=8) is treated with scrambled ghrelin siRNA, the other group of rats receive ghrelin siRNA in the same volume administered orally by using an intragastric gavage. The dose and the specific siRNA is determined by an initial screening of ghrelin siRNAs using cultured cells. The siRNA that induces a significant suppression of ghrelin mRNA (for example, Applicants have shown that GGUUCAAUGCUCCCUUCGAtt (SEQ ID NO:17) suppressed ghrelin mRNA levels by 40% in vitro) compared to scrambled or saline control is, then, used in vivo. Food intake is measure before dark and light onset on each experimental day and for 5 additional days after the siRNA treatment. Body weight is monitored once a day. Additionally, rats are implanted with EEG and EMG electrodes for sleep-wake recordings.

ghrelin KO mice [1] = assay: obestatin replacement by osmotic minipump in ghrelin KO mice, fasting in cold environment; format: in vivo
Description: Likewise, in addition to ghrelin, another product of the ghrelin gene is obestatin. The effects of obestatin on food intake and metabolism appear to be the opposite of those of ghrelin although the results are still inconclusive (2, 10-14). If obestatin has a leptin-like role in the regulation of metabolism, then decreased resistance to metabolic challenge in ghrelin KO mice could be explained by the lack of this hormone. Based on this idea, Applicants attempted to rescue the herein disclosed impaired phenotype by replacing obestatin in ghrelin KO mice. There are several potential ways to do this, although each has its own limitations. The effects of a single bolus injection of obestatin are limited by the half-life of the peptide (22±2 min). […] Because of those limitations, obestatin was replaced using osmotic minipumps. This method also has limitations. The minipumps are filled and implanted at least 10 days before the challenge to allow enough time for recovery and to carry out the experiment. The stability of obestatin in solution at body temperature for such extended time period is unknown. Moreover, some of the biological effects of obestatin show a bell-shaped dose-response relationship. […]
Body temperature data are expressed as difference from baseline in 10-min averages.

ghrelin KO mice [2] = assay: bolus injections of obestatin in ghrelin KO mice (preliminary data); format: in vivo; details: preliminary data (not shown)
Description: Likewise, in addition to ghrelin, another product of the ghrelin gene is obestatin. The effects of obestatin on food intake and metabolism appear to be the opposite of those of ghrelin although the results are still inconclusive (2, 10-14). If obestatin has a leptin-like role in the regulation of metabolism, then decreased resistance to metabolic challenge in ghrelin KO mice could be explained by the lack of this hormone. Based on this idea, Applicants attempted to rescue the herein disclosed impaired phenotype by replacing obestatin in ghrelin KO mice. There are several potential ways to do this, although each has its own limitations. The effects of a single bolus injection of obestatin are limited by the half-life of the peptide (22±2 min). […] Because of those limitations, obestatin was replaced using osmotic minipumps. This method also has limitations. The minipumps are filled and implanted at least 10 days before the challenge to allow enough time for recovery and to carry out the experiment. The stability of obestatin in solution at body temperature for such extended time period is unknown. Moreover, some of the biological effects of obestatin show a bell-shaped dose-response relationship. It is unknown whether the amount of obestatin released from the minipumps provides the optimal plasma levels or appropriate pulsatile or ultradian secretion patterns.

Row | Substance | suppression of ghrelin mRNA levels (ghrelin mRNA) | development of hypothermia / hypothermic response (ghrelin KO mice [1]; osmotic minipump, fasting day) | entered hypothermia later than those that received saline (ghrelin KO mice [1]; subcutaneous infusion of 300 nmol/kg/day for 10 days by osmotic minipump) | hypothermia in ghrelin KO mice (ghrelin KO mice [2])
1 | SEQ ID NO:17: ghrelin siRNA (mouse), sequence GGUUCAAUGCUCCCUUCGAtt (GGUUCAAUGCUCCCUUCGATT; chemistry not given here) | 40% |  |  | 
2 | obestatin |  | significantly attenuated; also recorded: significantly delayed | about 6 hours | attenuated hypothermia
